EC50 and AC50 data for 40 molecules are collected here from ChEMBL document CHEMBL1201862, “PubChem BioAssay data set” (2004).

Experiment [1] has as its system Streptococcus. In words: Group A Streptococcus viability loss, dose response, counter-screen for streptokinase expression inhibitor project, luminescence, BacTiterGlo (AID 1915).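 Further: potency for reduction of bacterial viability or growth.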 Type of experiment: functional, organism-based. On the technique in general: A counterscreen serves to expose hits that act by an unwanted route or on another target.
For experiment [2], the system named is Streptococcus sp. 'group A'. In words: growth inhibition of control SK(-) GAS strain, dose response, counter-screen for streptokinase expression inhibitor project, luminescence, kanamycin, BacTiterGlo, confirmation (AID 1900). Type of experiment: functional, organism-based.
In experiment [3] the target is T1, Streptokinase A (Streptococcus pyogenes serotype M1, UniProt P10520).
T1 sequence (P10520 whole entry): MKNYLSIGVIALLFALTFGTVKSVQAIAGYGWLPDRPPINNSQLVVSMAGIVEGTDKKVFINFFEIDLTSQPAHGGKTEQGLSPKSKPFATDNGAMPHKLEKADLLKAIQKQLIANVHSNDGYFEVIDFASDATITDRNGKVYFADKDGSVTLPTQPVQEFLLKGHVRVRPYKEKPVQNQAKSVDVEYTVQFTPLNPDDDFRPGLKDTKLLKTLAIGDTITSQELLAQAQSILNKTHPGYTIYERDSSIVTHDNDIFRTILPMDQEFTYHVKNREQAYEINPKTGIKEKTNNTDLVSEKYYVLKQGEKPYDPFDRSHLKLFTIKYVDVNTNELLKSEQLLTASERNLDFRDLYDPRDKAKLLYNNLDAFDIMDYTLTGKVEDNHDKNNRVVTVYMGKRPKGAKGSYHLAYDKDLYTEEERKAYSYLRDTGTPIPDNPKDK
In words: S. pyogenes streptokinase expression inhibitors, potency, dose response, plasminogen activation absorbance, OD405 (AID 1914).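 Further: secreted streptokinase activity via plasminogen activation per viability signal from cell pellet.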 Type of experiment: functional, Streptococcus pyogenes M1 GAS.

Experiment [4] addresses T2, Corticotropin-releasing factor receptor 2/Corticotropin-releasing factor-binding protein (Homo sapiens, UniProt P24387+Q13324).
T2 sequence (Q13324 whole entry): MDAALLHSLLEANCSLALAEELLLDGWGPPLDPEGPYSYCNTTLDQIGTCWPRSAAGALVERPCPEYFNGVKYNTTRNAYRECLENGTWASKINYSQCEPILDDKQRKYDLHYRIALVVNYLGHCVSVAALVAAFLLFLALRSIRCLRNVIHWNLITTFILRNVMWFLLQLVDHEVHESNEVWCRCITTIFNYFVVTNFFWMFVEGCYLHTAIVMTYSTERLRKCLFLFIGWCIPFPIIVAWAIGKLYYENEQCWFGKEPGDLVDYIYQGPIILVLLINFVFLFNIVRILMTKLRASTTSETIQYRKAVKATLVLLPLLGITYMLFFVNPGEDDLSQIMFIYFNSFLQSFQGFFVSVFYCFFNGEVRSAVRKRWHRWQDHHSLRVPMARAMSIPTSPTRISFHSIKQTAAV
T2 sequence (P24387 whole entry): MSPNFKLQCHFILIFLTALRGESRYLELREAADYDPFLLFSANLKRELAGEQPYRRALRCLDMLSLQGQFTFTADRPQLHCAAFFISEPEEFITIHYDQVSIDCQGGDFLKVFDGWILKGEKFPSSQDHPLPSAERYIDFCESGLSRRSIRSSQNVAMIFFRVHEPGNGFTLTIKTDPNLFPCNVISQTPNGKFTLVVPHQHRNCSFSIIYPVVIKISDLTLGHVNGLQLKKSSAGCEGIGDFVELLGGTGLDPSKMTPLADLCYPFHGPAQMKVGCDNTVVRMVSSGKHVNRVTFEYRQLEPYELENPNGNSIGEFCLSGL
In words: activators of CRF receptor 2 with binding protein – uHTS hits, confirmation (AID 602473). Type of experiment: functional. To be noted: read-out: EC50_Mean.

For experiment [5], the target named is T3, Cytochrome P450 1A2 (Homo sapiens, UniProt P05177).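 Further: PubChem cytochrome P450 panel assay, CYP1A2 panel member.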
T3 sequence (P05177 whole entry): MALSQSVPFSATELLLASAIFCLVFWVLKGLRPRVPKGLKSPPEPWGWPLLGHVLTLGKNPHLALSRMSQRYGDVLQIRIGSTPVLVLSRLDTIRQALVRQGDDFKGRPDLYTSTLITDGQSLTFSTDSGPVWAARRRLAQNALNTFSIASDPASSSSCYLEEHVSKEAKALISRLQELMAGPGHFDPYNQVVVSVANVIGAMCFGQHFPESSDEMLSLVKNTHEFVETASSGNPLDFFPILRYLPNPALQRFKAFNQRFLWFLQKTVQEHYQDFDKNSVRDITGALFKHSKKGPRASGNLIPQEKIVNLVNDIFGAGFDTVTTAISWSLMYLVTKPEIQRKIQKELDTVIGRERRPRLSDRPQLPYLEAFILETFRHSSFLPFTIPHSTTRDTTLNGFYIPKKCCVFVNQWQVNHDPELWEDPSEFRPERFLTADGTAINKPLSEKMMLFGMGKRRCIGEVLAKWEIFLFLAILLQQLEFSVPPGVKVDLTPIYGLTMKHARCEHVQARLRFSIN

Experiment [6] can be described thus: inhibitors of intracellular T. cruzi replication, confirmation, NIH3T3 host cells, beta-gal luminescence (AID 2044).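 Further: intracellular parasites grown in NIH/3T3 mouse fibroblasts as host cells; luminescent beta-galactosidase reporter signal from transgenic T. cruzi replicating inside host cells; inhibitors lower the luminescence signal.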 Type of experiment: functional, cell-based.
Experiment [7] in a line: cytotoxicity toward NIH3T3 fibroblasts, dose response, counter-screen, cell-based, ATP luminescence, mouse fibroblasts (AID 2010).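 Further: cells exposed to compound for about 90 hours before reading.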 Type of experiment: functional.

The source made the active and inactive calls. For most assays here, no stated cut-off is given here; in the data, actives have a measured EC50 and inactives only a lower limit. Where only a bound is given, the exact number is not on record here.

Turning to `C=CCn1c(Oc2ccc(C(=O)OC)cc2)nc2c1c(=O)n(C)c(=O)n2C`, the EC50 is > 150 µM (not active) in experiment [1], 12.4 µM (active) in experiment [2] and > 150 µM (not active) in experiment [3].

For `COc1ccc(NS(=O)(=O)c2ccc(C(=O)N3CCC(C)CC3)cc2)cc1`, the EC50 in experiment [4] was 9.87 µM (active).

Consider `O=C(O)c1ccc(N2C=[N+]3C(=Nc4ccccc43)C2)cc1`, for which, in experiment [5], the AC50 (usually the concentration at which the activity in the assay is half-maximal) was 5.01 µM (inconclusive).

As to `CCCCn1c(=N)c(S(=O)(=O)c2ccc(Br)cc2)cc2c(=O)n3cccc(C)c3nc21`, in experiment [4], the EC50 is > 53 µM (inactive).

On to `CN1CCN(c2ncnc3sc(-c4ccccc4)cc23)CC1`, for which the EC50 in experiment [6] was 0.314 µM (active); in experiment [7], > 60 µM (not active).

Turning to `CCOc1cccc2sc(N(CCCN(C)C)C(=O)c3ccc(S(=O)(=O)N(C)c4ccccc4)cc3)nc12`, the figures for the EC50 in experiment [6] and in experiment [7] were 1.52 µM (active) and > 60 µM (not active), respectively.

Regarding `COC(=O)C1=CN(Cc2ccc(OC)c(OC)c2)C=C(C(=O)OC)C1c1cccs1`, the EC50 in experiment [6] was 0.707 µM (active).

In the case of `COc1ccc(NC(=O)CSc2ccc3nnc(-c4ccccn4)n3n2)c(OC)c1`, the EC50 in experiment [1], in experiment [2] and in experiment [3] was > 150 µM (not active) each time.

For the molecule `Cc1ccc(NC(=S)NC2CCSc3ccccc32)cc1C` (centres undefined), in experiment [3], the EC50 is 24.3 µM (active).

For `N#Cc1c(NC(=S)NC(=O)c2ccccc2)sc2c1CCN(CCc1ccccc1)C2`, the EC50 in experiment [6] is 0.717 µM (active); in experiment [7] it was > 60 µM (not active).

For `O=[N+]([O-])c1cc(-c2n[nH]c(-c3ccccc3)n2)cc([N+](=O)[O-])c1`, the EC50 in experiment [6] is 0.475 µM (active); in experiment [7] it was > 60 µM (not active).

On to `CCOc1ccc(NS(=O)(=O)c2cc(NC(=O)c3ccc(C)cc3)ccc2Cl)cc1`, for which the EC50 in experiment [1] is 6.62 µM (active); in experiment [2] it was 12.5 µM (active).

Consider `CCOc1ccc(C)cc1S(=O)(=O)NC1CCCCCC1`, for which the EC50 in experiment [1], in experiment [2] and in experiment [3] was > 150 µM (not active) in each case.

Regarding `COc1ccc(C(=O)Nc2c3c(nn2-c2ccc([N+](=O)[O-])cc2)CS(=O)(=O)C3)cc1`, the results for the EC50 in experiment [1], in experiment [2] and in experiment [3] were > 150 µM (not active), 16.1 µM (active) and > 150 µM (not active), respectively.

For `COc1ccccc1CNc1ncnc2ccc(-c3ccccc3CN(C)C)cc12`, the half-maximal activity concentration (AC50) in experiment [5] was 15.8 µM (inconclusive).

On to `CCc1ccc(CN(Cc2cccnc2)C(=O)/C=C/c2ccc(OC)cc2)cc1`, for which the values for the EC50 in experiment [6] and in experiment [7] were 0.375 µM (active) and > 30 µM (not active), respectively.

Consider `Cn1c(Oc2ccccc2NCc2cc(Br)ccc2O)cc(=O)n(C)c1=O`, for which the EC50 in experiment [1] was 16.1 µM (active); in experiment [2], 6.42 µM (active); in experiment [3], > 150 µM (not active).

For `COc1ccc(CN(C(=O)c2ccc(-c3ccccc3)[nH]2)C(C(=O)NC(C)(C)C)c2ccncc2)cc1` (centres undefined), the EC50 was 0.706 µM (active) in experiment [6] and > 60 µM (not active) in experiment [7].

For the molecule `CC1CCCC(C)N1S(=O)(=O)c1ccc(S(=O)(=O)NCCc2ccncc2)cc1` (centres undefined), the results for the EC50 in experiment [6] and in experiment [7] were 2.83 µM (active) and > 60 µM (not active), respectively.

As to `Clc1ccc(C2C3=C(Nc4ncnn42)c2ccccc2CC3)cc1` (centres undefined), the EC50 in experiment [1] was 43.2 µM (active); in experiment [2], 7.5 µM (active); in experiment [3], > 150 µM (not active).

As to `Cc1ccccc1-n1nc(C(=O)c2cccs2)cc(-c2nc3ccccc3[nH]2)c1=N`, the EC50 in experiment [1] was 3.73 µM (active); in experiment [2] it was 2.99 µM (active).

As for `CCCOc1ccc(CNCCCOCC)cc1OC`, the EC50 in experiment [6] is 0.344 µM (active); in experiment [7], > 60 µM (inconclusive).

In the case of `Cc1ccc(NC(S)=NC2CCSc3ccccc32)cc1C` (centres undefined), the EC50 in experiment [1] is > 150 µM (not active); in experiment [2], 20.6 µM (active).

For `Cc1ccc2cc(/C=N/NC(=O)[C@H]3C[C@@H]3c3ccccc3)c(Cl)nc2c1`, the EC50 in experiment [6] was 2.26 µM (active); in experiment [7] it was > 60 µM (not active).

Take `COc1ccccc1C(c1nnnn1Cc1ccco1)N1CCN(c2cccc(C)c2C)CC1` (centres undefined): the EC50 is 1.84 µM (active) in experiment [6] and > 60 µM (not active) in experiment [7].

As for `CN1C(=O)C(=Cc2ccc(N3CCOCC3)o2)C(=O)N(C)C1=S`, the EC50 in experiment [4] is 7.57 µM (active).

On to `CCC(N=C(S)NC1CCCCC1)c1ccc(C(C)C)cc1` (centres undefined), for which the EC50 in experiment [1] was 82 µM (active); in experiment [2], 10.7 µM (active).

On to `Cc1c(-n2cc(C(=O)c3cc(F)ccc3O)cc(C#N)c2=O)c(=O)n(-c2ccccc2)n1C`, for which the EC50 in experiment [4] was > 53 µM (inactive).

With `CC1(C)CC(=O)c2c(n(S(=O)(=O)c3ccccc3)c3ccc(NS(=O)(=O)c4ccccc4)cc23)C1`, the EC50 was 1.03 µM (active) in experiment [6] and 10.6 µM (active) in experiment [7].

Consider `COC(=O)[C@@]12CCCN1[C@H](c1ccc(-c3cccc(Cl)c3)c(OC)c1)[C@H]1C(=O)N(C)C(=O)[C@H]12`, for which the results for the EC50 in experiment [1], in experiment [2] and in experiment [3] were > 150 µM (not active), 105 µM (active) and > 150 µM (not active), respectively.

With `Cc1cc(C)nc(N=C(NCCc2c[nH]c3ccccc23)NC(=O)Nc2ccc(Cl)c(Cl)c2)n1`, the EC50 in experiment [6] is 1.62 µM (active); in experiment [7] it was > 60 µM (not active).

With `CC1CC(C)CN(C2CCCCC2NS(=O)(=O)c2ccc(Cl)cc2)C1` (centres undefined), the EC50 in experiment [4] was 6.53 µM (active).

For `N#Cc1ccccc1Cn1cc(/C=N/Nc2ccc([N+](=O)[O-])cn2)c2ccccc21`, the figures for the EC50 in experiment [6] and in experiment [7] were 1.94 µM (active) and > 60 µM (inconclusive), respectively.

For the molecule `CCOC(=O)N1CCN(CC(O)c2ccc3cc[nH]c3c2)CC1` (centres undefined), the EC50 in experiment [4] was > 53 µM (inactive).

Turning to `COc1ccccc1C(=O)NC(=S)Nc1ccc(N2CCCC2)cc1`, the EC50 in experiment [6] was 1.97 µM (active); in experiment [7] it was > 60 µM (not active).

For the molecule `COc1cc(CNCCc2ccccc2F)ccc1OCC(=O)N1CCCCC1`, the values for the EC50 in experiment [6] and in experiment [7] were 0.393 µM (active) and > 30 µM (not active), respectively.

Take `O=c1[nH]c(=O)c2cc([N+](=O)[O-])cc([N+](=O)[O-])c2[nH]1`: the values for the EC50 in experiment [6] and in experiment [7] were 1.04 µM (active) and > 30 µM (not active), respectively.

For the molecule `COc1ccc(/C=C/c2ccncc2)cc1`, the EC50 in experiment [6] was 0.529 µM (active); in experiment [7], > 60 µM (not active).

On to `Cc1cccc(NC(=O)C(=O)NNC(=O)c2ccc(C(C)(C)C)cc2)c1`, for which the EC50 is 25.4 µM (active) in experiment [1], 9.34 µM (active) in experiment [2] and > 150 µM (not active) in experiment [3].

As to `Cc1ccc(C(=O)N2CCOCC2)cc1S(=O)(=O)N1CCOCC1`, the EC50 in experiment [1], in experiment [2] and in experiment [3] was > 150 µM (not active) in each case.
